Test [1] concerns human prostate carcinoma cells (cell line LNCaP). Nature of the test: LNCaP cell growth assay. The conditions noted are these: FIG. 4; for growth of LNCaP cells: atraric acid 10 μM, OH—F 0.1 μM. The test is classed as cell-based. The procedure: The growth of prostate cells and prostate cancer cells is originally dependent on androgens.
Human prostate carcinoma cells (cell line LNCaP) were cultured in RPMI-1640 medium that was supplemented with 10% (v/v) fetal calf serum, penicillin (100 IU/ml) and streptomycin (100 IU/ml), 2 mM glutamine and 1 mM sodium pyruvate.
For the cell growth assays, LNCaP cells were seeded onto a 24-well cell culture plate at a density of 5×10^3 cells per well and cultured in RPMI-1640 medium containing 5% fetal calf serum. […] Every second day the medium was replaced with fresh medium together with freshly added compounds. The cells were trypsinized and counted using a counting cell chamber on the indicated days.

Test [2] concerns pathologically altered androgen receptor. Conditions: background, prior work; cited from earlier work.
The target in test [3] is T1, human androgen receptor (hAR) (Homo sapiens, UniProt P10275).
T1 construct: expressed in transfected cells; host or cells: CV1 monkey kidney cells, which lack endogenous androgen receptor
T1 sequence (P10275 1-920): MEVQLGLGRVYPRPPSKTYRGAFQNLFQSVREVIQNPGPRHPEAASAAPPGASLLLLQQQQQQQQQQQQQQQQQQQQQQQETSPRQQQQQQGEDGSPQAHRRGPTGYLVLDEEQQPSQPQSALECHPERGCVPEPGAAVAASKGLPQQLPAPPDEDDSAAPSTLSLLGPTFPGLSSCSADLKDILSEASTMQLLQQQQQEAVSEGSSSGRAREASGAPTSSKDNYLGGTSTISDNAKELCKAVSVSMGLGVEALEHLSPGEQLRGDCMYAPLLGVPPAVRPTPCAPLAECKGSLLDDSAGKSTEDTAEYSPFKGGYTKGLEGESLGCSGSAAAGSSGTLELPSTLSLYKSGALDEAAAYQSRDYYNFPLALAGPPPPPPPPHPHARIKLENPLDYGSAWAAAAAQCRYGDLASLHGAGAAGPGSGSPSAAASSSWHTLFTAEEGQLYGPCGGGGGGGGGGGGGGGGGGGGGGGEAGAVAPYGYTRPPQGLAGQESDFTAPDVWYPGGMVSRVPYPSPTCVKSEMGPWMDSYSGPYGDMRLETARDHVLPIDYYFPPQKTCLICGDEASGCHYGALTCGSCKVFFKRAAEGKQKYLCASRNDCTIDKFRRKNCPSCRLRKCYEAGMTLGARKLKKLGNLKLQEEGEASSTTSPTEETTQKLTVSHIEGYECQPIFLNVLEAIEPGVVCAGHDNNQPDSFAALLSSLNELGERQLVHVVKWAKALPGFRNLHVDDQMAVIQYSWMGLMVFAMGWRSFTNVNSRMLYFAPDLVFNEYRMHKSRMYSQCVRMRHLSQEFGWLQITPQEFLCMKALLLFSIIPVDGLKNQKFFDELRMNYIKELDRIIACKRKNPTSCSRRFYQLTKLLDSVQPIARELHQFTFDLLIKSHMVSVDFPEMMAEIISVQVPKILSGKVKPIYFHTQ
In words: androgen receptor-dependent MMTV-luc reporter gene assay (luciferase assay) in transfected CV1 cells. The test is classed as cell-based. The conditions noted are these: for inactivation of androgen receptor-mediated transactivation: 1 μM concentration; for inhibition of androgen receptor-mediated transactivation: 10 μM concentration, FIG. 7; for antiandrogenic effect of atraric acid derivatives and structurally similar compounds: FIGS. 6 and 7, concentration not given (FIG. 6: 10^−6 M). An excerpt:
The potentially antiandrogenic efficacy of the extracts obtained was examined with the androgen receptor-dependent MMTV-luc reporter gene assay, in the following designated as luciferase assay.
In that assay, the enzyme luciferase serves as a reporter gene. Luciferase is an oxidoreductase from the North American firefly Photinus pyralis, which […] the substrate luciferin in the presence of aerial oxygen, ATP and Mg^2+ ions, to oxyluciferin. The energy emitted in the process is emitted as light.
The reporter gene luciferase is located on the plasmid pMMTV-luc (MMTV=Mouse mammary tumour virus), on which is also located the androgen-responsive element (ARE). The plasmid pMMTV-luc is transfected, together with the androgen receptor expression vector, into fibroblasts of the monkey kidney. If an androgen is added thereto, this androgen will bind, in a complex with the androgen receptor, to the androgen-responsive element. This process then initiates the transcription of the following gene, namely that of the luciferase reporter gene. The amount of the expressed luciferase is directly proportional to the amount of light released when adding luciferin, and the amount of light can be quantified by measuring the emission at λ=562 nm. If apart from the androgen there is also an antiandrogenic substance or an antiandrogenic extract, the transactivation of the luciferase reporter gene by the androgen-responsive element is inhibited and later, when the substrate is added, a correspondingly smaller amount of light energy is released.
The extracts were then examined at two concentrations (300 μg/ml and 600 μg/ml) for their antiandrogenic bioactivity using the luciferase assay.
Monkey kidney cells, line CV1, lacking endogenous androgen receptor, were cultured in Dulbecco's modified Eagle's medium (DMEM), supplemented with 10% (v/v) fetal calf serum, penicillin (100 IU/ml) and streptomycin (100 IU/ml), at 37° C. and 5% CO2.
For the transfection experiments, the cells were seeded onto 6-well cell culture plates (Nunc, Roskilde, Denmark) with a density of 1.2×10^5 cells per well, and grown in DMEM medium supplemented with 10% (v/v) dextran-coated activated charcoal stripped serum. Six hours after seeding, the cells were transfected by using the Ca3(PO4)2 method. The human androgen receptor (hAR) expression vector (0.2 μg) was cotransfected with 1 μg of the reporter plasmid MMTV-luc and 0.2 μg of the cytomegalovirus (CMV)-driven β-galactosidase expression virus, as internal control for transfection efficiency. After 14 hours, the medium was replaced either without (white bars in FIGS. 1 to 3) or with the addition of methyltrienolone (R1881, 3×10^−10 M final concentration; black bars in FIGS. 1 to 3) together with the indicated extracts (FIG. 1), fractions of the methylene chloride extract (FIG. 2) or individual isolated compounds (FIG. 3). After an additional 48 hours, cells were harvested and assayed for luciferase and β-galactosidase activity.
Luciferase activity was determined by injecting luciferin and measuring light emission at 562 nm and expressed as relative light units (RLU) by using the values […] β-galactosidase activity for normalisation of the luciferase activity. All transfection assays shown were performed in duplicate and were repeated at least twice.
For determining antiandrogenic activity in the various extracts from the bark of P. africana, the extracts were used at a concentration of 300 μg/ml.
For determining the antiandrogenic activity in the fractions of the selective methylene chloride extracts, 2 μl of the respective fraction was used, corresponding to a final concentration of 30 μg/ml. Fractions 6 to F10 were additionally tested with 4 μl, corresponding to 60 μg/ml final concentration.
On the technique in general: Reporter assays use an easily measured gene product as a stand-in for the process of interest.

The next test deals with T2, human ERβ (Homo sapiens, UniProt Q92731).
T2 construct: expressed in transfected cells; host or cells: CV1 cells
In words: p2ERE-TATA-luc reporter gene assay in CV1 cells transfected with ERβ. Conditions: FIG. 8. The test is classed as cell-based. The method, then: (§1) After seven days, the cells were seeded in 6-well plates (Nunc, Roskilde, Denmark) at a density of 1.5×10^5 cells per well. After 24 hours, the cells were transfected according to the calcium phosphate method with 2 μg of the reporter gene-encoding expression plasmid, 0.2 μg of the ERα-encoding or ERβ-encoding expression plasmid and, for reasons of normalisation, 0.2 μg of the cytomegalovirus-derived β-galactosidase. […] After 48 hours, the cells were harvested and assayed for luciferase and β-galactosidase activity. All transfection assays were performed in duplicate and were repeated at least twice.

For another test, the target named is T3, human ERα (Homo sapiens, UniProt P03372).
T3 construct: expressed in transfected cells; host or cells: CV1 cells
Nature of the test: p2ERE-TATA-luc reporter gene assay in CV1 cells transfected with ERα. The test is classed as cell-based. The conditions noted are these: FIG. 9. The procedure: as §1

Setting [4] is: no estradiol present, 10 μM or 100 μM.

T3 sequence (P03372 whole entry): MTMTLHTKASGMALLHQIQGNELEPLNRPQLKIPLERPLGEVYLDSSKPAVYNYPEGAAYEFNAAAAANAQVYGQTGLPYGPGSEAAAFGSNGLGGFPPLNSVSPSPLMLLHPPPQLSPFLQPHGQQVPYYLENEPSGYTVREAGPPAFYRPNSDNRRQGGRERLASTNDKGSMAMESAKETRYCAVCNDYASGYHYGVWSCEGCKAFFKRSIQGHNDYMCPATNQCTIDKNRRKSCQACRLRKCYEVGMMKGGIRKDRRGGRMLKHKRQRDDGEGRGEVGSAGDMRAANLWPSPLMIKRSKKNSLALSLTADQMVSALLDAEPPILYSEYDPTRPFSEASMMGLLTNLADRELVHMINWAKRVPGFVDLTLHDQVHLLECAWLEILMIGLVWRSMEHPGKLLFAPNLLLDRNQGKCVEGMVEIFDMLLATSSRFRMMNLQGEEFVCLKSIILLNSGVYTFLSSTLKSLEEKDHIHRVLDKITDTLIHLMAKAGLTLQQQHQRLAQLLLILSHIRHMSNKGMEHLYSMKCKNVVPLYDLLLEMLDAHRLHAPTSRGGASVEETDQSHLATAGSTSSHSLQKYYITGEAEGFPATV
T2 sequence (Q92731 whole entry): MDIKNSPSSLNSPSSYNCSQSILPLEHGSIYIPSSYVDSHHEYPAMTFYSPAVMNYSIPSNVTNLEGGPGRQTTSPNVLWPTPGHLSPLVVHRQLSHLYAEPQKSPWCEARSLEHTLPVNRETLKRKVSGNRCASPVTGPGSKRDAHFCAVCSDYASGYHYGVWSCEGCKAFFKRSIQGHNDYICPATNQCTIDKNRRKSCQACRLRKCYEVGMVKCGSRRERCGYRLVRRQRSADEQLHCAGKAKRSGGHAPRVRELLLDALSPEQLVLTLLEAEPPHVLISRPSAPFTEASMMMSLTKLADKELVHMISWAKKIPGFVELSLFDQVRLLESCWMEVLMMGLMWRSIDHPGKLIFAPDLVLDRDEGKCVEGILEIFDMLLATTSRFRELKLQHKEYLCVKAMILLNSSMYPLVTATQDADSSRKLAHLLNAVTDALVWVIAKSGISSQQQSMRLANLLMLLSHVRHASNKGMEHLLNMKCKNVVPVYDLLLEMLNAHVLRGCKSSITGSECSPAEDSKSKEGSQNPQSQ

With `CC(C)(O)C(=O)Nc1ccc([N+](=O)[O-])c(C(F)(F)F)c1` [OH—F, hydroxyflutamide, reference compound], in test [1], the “growth of LNCaP cells” value is recorded as “did not lead to any reduction in growth”.

Take `CC(=O)[C@@]1(O)CC[C@H]2[C@@H]3C=C(Cl)C4=CC(=O)[C@@H]5C[C@@H]5[C@]4(C)[C@H]3CC[C@@]21C` [cyproterone]: the “inclusions in cells expressing a pathologically altered androgen receptor” value in test [2] is reported as “only a small number of inclusions”. With `COC(=O)c1ccc(O)c(C)c1O` [R4, methyl-2,4-dihydroxy-3-methylbenzoate], in test [3], the “inactivation of androgen receptor-mediated transactivation” value is recorded as “still able to inactivate” and the “inhibition of androgen receptor-mediated transactivation” value is recorded as “nearly completely inhibiting”. On to `COC(=O)c1c(O)c(C)cc(C)c1O` [R5, methyl-2,6-dihydroxy-3,5-dimethylbenzoate], for which the “antiandrogenic effect of atraric acid derivatives and structurally similar compounds” value (“antiandrogenic effect” for short) in test [3] is on record as “loss of antiandrogenic activity”. For `Cc1cc(C(=O)OC(C)C)c(O)c(C)c1O` [A6, isopropyl-2,4-dihydroxy-3,5-dimethylbenzoate], in test [3], the “inactivation of androgen receptor-mediated transactivation” value is given as “still able to inactivate” and the “inhibition of androgen receptor-mediated transactivation” value was “nearly completely inhibiting”. Regarding `COC(=O)c1c(C)cc(O)c(C)c1O` [atraric acid, methyl-2,4-dihydroxy-3,6-dimethylbenzoate], the “growth of LNCaP cells versus untreated cells” value in test [1] (10 μM, 8th day of treatment) is “clearly slower”. Moreover, the “growth of LNCaP cells” value in test [1] is recorded as “reduced growth”. Further, on human ERβ (setting [4]), the “estrogen-responsive expression of the reporter gene (ERβ agonism)” value is on record as “activated in a dose-dependent manner”. Besides, the “hormone-mediated transactivation of ERβ” value on human ERβ (with estradiol) was “not affected”. For the same compound, the “estrogen-responsive expression of the reporter gene (ERα agonism)” value on human ERα (setting [4]) is listed as “activated in a dose-dependent manner”. For the same compound, on human ERα (with estradiol), the “hormone-mediated transactivation of ERα” value is given as “not affected”. Regarding `COC(=O)c1c(C)c(Br)c(O)c(Br)c1O` [R1, methyl-3,5-dibromo-2,4-dihydroxy-6-methylbenzoate], the “antiandrogenic effect” value in test [3] is listed as “loss of anti androgenic activity”. As to `Cc1cc(O)c(C)c(O)c1C(=O)OCCNS(=O)(=O)c1ccccc1` [A4, 2-[(phenylsulfonyl)amino]ethyl-2,4-dihydroxy-3,6-dimethylbenzoate], in test [3], the “antiandrogenic effect” value is “no antiandrogenic effect”. Take `C[C@]12CC[C@H]3[C@@H](CCC4=CC(=O)CC[C@@]43C)[C@@H]1CC[C@@H]2O` [testosterone]: the “inclusions in cells expressing a pathologically altered androgen receptor” value in test [2] is on record as “characteristic inclusions in the cytoplasm”. As for `CC(C)=CCC/C(C)=C/COC(=O)c1cc(C)c(O)c(C)c1O` [A5, (2E)-3,7-dimethylocta-2,6-dien-1-yl-2,4-dihydroxy-3,5-dimethylbenzoate], the “antiandrogenic effect” value in test [3] is given as “did not lead to an antiandrogenically active molecule”.

`Cc1cc(O)c(C)c(O)c1C(=O)O` [R6, 2,4-dihydroxy-3,6-dimethylbenzoic acid]: in test [3], the “antiandrogenic effect” value is listed as “abrogates the antiandrogenic activity”.

Source of the values: patent US8481519B2 (LTS Lohmann Therapie-Systeme AG, priority 2005, dated 2013).
